# Key:
# [1] = test system: ABUTH (Abutilon theophrasti); assay: Postemergence herbicidal evaluation; type: in vivo, Medic.; conditions: postemergence
# Protocol: (§1) In the tests, seedling plants are grown in jiffy flats for about two weeks. […] After spraying, the plants are placed on greenhouse benches and are cared for in accordance with conventional greenhouse procedures. From four to five weeks after treatment, the seedling plants are examined and rated according to the rating system set forth below. Where more than one test is involved for a given compound, the data are averaged.
# (§2) Results of herbicide evaluation are expressed on a rating scale (0-9). The scale is based upon a visual observation of plant stand, vigor, malformation, size, chlorosis and overall plant appearance as compared with a control.
# [2] = test system: AMBEL (Ambrosia artemisifolia); assay: Postemergence herbicidal evaluation; type: in vivo, L.; conditions: postemergence
# Protocol: as §1, §2
# [3] = test system: CASOB (Cassia obtusifolia); assay: Postemergence herbicidal evaluation; type: in vivo, L.; conditions: postemergence
# Protocol: as §1, §2
# [4] = test system: CHEAL (Chenopodium album); assay: Postemergence herbicidal evaluation; type: in vivo, L.; conditions: postemergence
# Protocol: as §1, §2
# GALAP (Galium aparine) [5] = assay: Postemergence herbicidal evaluation; type: in vivo; conditions: postemergence
# Protocol: as §1, §2
# [6] = test system: IPOHE (Ipomoea hederacea); assay: Postemergence herbicidal evaluation; type: in vivo, (L.) Jacq.; conditions: postemergence
# Protocol: as §1, §2
# [7] = test system: ECHCG (Echinochloa crus-galli); assay: Postemergence herbicidal evaluation; type: in vivo, (L.) Beau; conditions: postemergence
# Protocol: as §1, §2
# SETVI (Setaria viridis) [8] = assay: Postemergence herbicidal evaluation; type: in vivo, (L.) Beau; conditions: postemergence
# Protocol: In the tests, seedling plants are grown in jiffy flats for about two weeks. The test compounds are dispersed in 50/50 acetone/water mixtures containing 0.5% TWEEN® 20, a polyoxyethylene sorbitan monolaurate surfactant of Atlas Chemical Industries, in sufficient quantities to provide the equivalent of about 0.0040 kg to 1.000 kg per hectare of active compound when applied to the plants through a spray nozzle operating at 40 psi for a predetermined time. After spraying, the plants are placed on greenhouse benches and are cared for in accordance with conventional greenhouse procedures. From four to five weeks after treatment, the seedling plants are examined and rated according to the rating system set forth below. Where more than one test is involved for a given compound, the data are averaged.
# as §2
# [9] = test system: GLXMAW (Soybean, Williams); assay: Postemergence herbicidal evaluation; type: in vivo, Glycine max, (L.) Merr. cv Williams; conditions: postemergence
# Protocol: as §1, §2
# ORYSAT (Rice, Tebonnet) [10] = assay: Postemergence herbicidal evaluation; type: in vivo, Oryza sativa, (L.) Tebonnet; conditions: postemergence
# Protocol: as §1, §2
# [11] = test system: TRZAWR (Wheat, Winter, cv Riband); assay: Postemergence herbicidal evaluation; type: in vivo, Triticum aestivum; conditions: postemergence
# Protocol: as §1, §2
# ZEAMX (Corn, Field) [12] = assay: Postemergence herbicidal evaluation; type: in vivo, Zea mays, L.; conditions: postemergence
# Protocol: as §1, §2
# [13] = test system: ABUTH (Abutilon theophrasti); assay: Preemergence herbicidal evaluation; type: in vivo, Medic.; conditions: Rate 0.0620 kg/ha; rated 4-5 weeks after treatment
# Text: as §2
# (§3) The preemergence herbicidal activity of the test compounds of the present invention is exemplified by the following tests in which the seeds of a variety of monocotyledonous and dicotyledonous plants are separately mixed with potting soil and planted on top of approximately one inch of soil in separate pint cups. […] The treated cups are then placed on greenhouse benches, watered and cared for in accordance with conventional greenhouse procedures. From four to five weeks after treatment, the tests are terminated and each cup is examined and rated according to the rating system provided in Example 87. The plant species used and the compounds evaluated are the same as those shown in Example 87.
# [14] = test system: AMBEL (Ambrosia artemisifolia); assay: Preemergence herbicidal evaluation; type: in vivo, L.; conditions: Rate 0.0620 kg/ha; rated 4-5 weeks after treatment
# Text: as §2, §3
# [15] = test system: CASOB (Cassia obtusifolia); assay: Preemergence herbicidal evaluation; type: in vivo, L.; conditions: Rate 0.0620 kg/ha; rated 4-5 weeks after treatment
# Text: as §2, §3
# [16] = test system: CHEAL (Chenopodium album); assay: Preemergence herbicidal evaluation; type: in vivo, L.; conditions: Rate 0.0620 kg/ha; rated 4-5 weeks after treatment
# Text: as §2, §3
# GALAP (Galium aparine) [17] = assay: Preemergence herbicidal evaluation; type: in vivo; conditions: Rate 0.0620 kg/ha; rated 4-5 weeks after treatment
# Text: as §2, §3
# [18] = test system: IPOHE (Ipomoea hederacea); assay: Preemergence herbicidal evaluation; type: in vivo, (L.) Jacq.; conditions: Rate 0.0620 kg/ha; rated 4-5 weeks after treatment
# Text: as §2, §3
# [19] = test system: ECHCG (Echinochloa crus-galli); assay: Preemergence herbicidal evaluation; type: in vivo, (L.) Beau; conditions: Rate 0.0620 kg/ha; rated 4-5 weeks after treatment
# Text: as §2, §3
# SETVI (Setaria viridis) [20] = assay: Preemergence herbicidal evaluation; type: in vivo, (L.) Beau; conditions: Rate 0.0620 kg/ha; rated 4-5 weeks after treatment
# Text: as §2, §3
# [21] = test system: GLXMAW (Soybean, Williams); assay: Preemergence herbicidal evaluation; type: in vivo, Glycine max, (L.) Merr. cv Williams; conditions: Rate 0.0620 kg/ha; rated 4-5 weeks after treatment
# Text: as §2, §3
# ORYSAT (Rice, Tebonnet) [22] = assay: Preemergence herbicidal evaluation; type: in vivo, Oryza sativa, (L.) Tebonnet; conditions: Rate 0.0620 kg/ha; rated 4-5 weeks after treatment
# Text: as §2, §3
# [23] = test system: TRZAWR (Wheat, Winter, cv Riband); assay: Preemergence herbicidal evaluation; type: in vivo, Triticum aestivum; conditions: Rate 0.0620 kg/ha; rated 4-5 weeks after treatment
# Text: as §2, §3
# ZEAMX (Corn, Field) [24] = assay: Preemergence herbicidal evaluation; type: in vivo, Zea mays, L.; conditions: Rate 0.0620 kg/ha; rated 4-5 weeks after treatment
# Text: as §2, §3
# [25] = test system: ECHORC (Echinochloa oryzoides); assay: Flooded paddy, preemergence weed control; type: in vivo, Echinochloa oryzoides (Ard.) Fritsch.; conditions: rated 3-4 weeks after treatment, 0-9 rating scale
# Protocol: as §2
# (§4) Preemergence herbicidal activity under flooded paddy conditions is determined as follows: plant seeds or propagating organs are planted in the top 0.5 cm of silt loam soil in 32 oz. plastic containers with a diameter of 10.5 cm and no drainage holes. Water is added to these containers and maintained at 1.5 to 3 cm above the soil surface for the duration of the experiment. […] The treated containers are placed on greenhouse benches and cared for in accordance with conventional greenhouse procedures.
# CYPIR (Cyperus iria) = assay: Flooded paddy, preemergence weed control; type: in vivo; conditions: rated 3-4 weeks after treatment, 0-9 rating scale
# Protocol: as §2, §4
# [26] = test system: MOOVA (Monochoria vaginalis); assay: Flooded paddy, preemergence weed control; type: in vivo, Presl.; conditions: rated 3-4 weeks after treatment, 0-9 rating scale
# Protocol: as §2, §4
# [27] = test system: SAGPY (Sagittaria pygmaea); assay: Flooded paddy, preemergence weed control; type: in vivo, L.; conditions: rated 3-4 weeks after treatment, 0-9 rating scale
# Protocol: as §2, §4
# ORYSAT (Rice, Tebonnet) [28] = assay: Flooded paddy, post-transplant rice tolerance; type: in vivo, Oryza sativa, (L.) Tebonnet; conditions: in vivo
# Protocol: as §2
# The tolerance of transplanted rice to post-transplanted herbicide application is determined as follows: two ten-day-old rice seedlings (cv. Tebonnet) are transplanted into silt loam soil in 32 oz. plastic containers with a diameter of 10.5 cm and no drainage holes. After transplanting, the containers are flooded and the water level is maintained at 1.5 to 3 cm above the soil surface. […] The treated containers are placed on greenhouse benches, watered such that the water level is maintained as stated above, and cared for in accordance with conventional greenhouse procedures.
compound,measurement,setting,value
"C[C@@H]1OC(c2nsc3cc(F)c(-n4c(=O)cc(C(F)(F)F)n(C)c4=O)cc23)O[C@@H]1C (stereo partly drawn) [Compound 66, 3-[3-[(4R,5S-)-4,5-dimethyl-1,3-dioxolan-2-yl]-6-fluoro-1,2-benzisothiazol-5-yl]-1-methyl-6-(trifluoromethyl)uracil]",ABUTH herbicidal rating,[1]; rate 0.0320 kg/ha,9.0
same,ABUTH herbicidal rating,[1]; rate 0.0620 kg/ha,9.0
same,AMBEL herbicidal rating,[2]; rate 0.0320 kg/ha,9.0
same,AMBEL herbicidal rating,[2]; rate 0.0620 kg/ha,9.0
same,CASOB herbicidal rating,[3]; rate 0.0320 kg/ha,8.0
same,CASOB herbicidal rating,[3]; rate 0.0620 kg/ha,9.0
same,CHEAL herbicidal rating,[4]; rate 0.0320 kg/ha,9.0
same,CHEAL herbicidal rating,[4]; rate 0.0620 kg/ha,9.0
same,GALAP herbicidal rating,GALAP (Galium aparine) [5]; rate 0.0320 kg/ha,9.0
same,GALAP herbicidal rating,GALAP (Galium aparine) [5]; rate 0.0620 kg/ha,9.0
same,IPOHE herbicidal rating,[6]; rate 0.0320 kg/ha,9.0
same,IPOHE herbicidal rating,[6]; rate 0.0620 kg/ha,9.0
same,ECHCG herbicidal rating,[7]; rate 0.0320 kg/ha,2.0
same,ECHCG herbicidal rating,[7]; rate 0.0620 kg/ha,5.0
same,SETVI herbicidal rating,SETVI (Setaria viridis) [8]; rate 0.0320 kg/ha,8.0
same,SETVI herbicidal rating,SETVI (Setaria viridis) [8]; rate 0.0620 kg/ha,9.0
same,GLXMAW herbicidal rating,[9]; rate 0.0320 kg/ha,9.0
same,GLXMAW herbicidal rating,[9]; rate 0.0620 kg/ha,9.0
same,ORYSAT herbicidal rating,"ORYSAT (Rice, Tebonnet) [10]; rate 0.0320 kg/ha",4.5
same,ORYSAT herbicidal rating,"ORYSAT (Rice, Tebonnet) [10]; rate 0.0620 kg/ha",4.5
same,TRZAWR herbicidal rating,[11]; rate 0.0320 kg/ha,4.0
same,TRZAWR herbicidal rating,[11]; rate 0.0620 kg/ha,4.0
same,ZEAMX herbicidal rating,"ZEAMX (Corn, Field) [12]; rate 0.0320 kg/ha",5.5
same,ZEAMX herbicidal rating,"ZEAMX (Corn, Field) [12]; rate 0.0620 kg/ha",5.5
same,Preemergence herbicidal rating ABUTH,[13],9.0
same,Preemergence herbicidal rating AMBEL,[14],9.0
same,Preemergence herbicidal rating CASOB,[15],6.0
same,Preemergence herbicidal rating CHEAL,[16],9.0
same,Preemergence herbicidal rating GALAP,GALAP (Galium aparine) [17],7.0
same,Preemergence herbicidal rating IPOHE,[18],7.5
same,Preemergence herbicidal rating ECHCG,[19],9.0
same,Preemergence herbicidal rating SETVI,SETVI (Setaria viridis) [20],9.0
same,Preemergence herbicidal rating GLXMAW,[21],9.0
same,Preemergence herbicidal rating ORYSAT,"ORYSAT (Rice, Tebonnet) [22]",8.5
same,Preemergence herbicidal rating TRZAWR,[23],8.0
same,Preemergence herbicidal rating ZEAMX,"ZEAMX (Corn, Field) [24]",8.0
same,"herbicidal rating, ECHORC",[25]; rate 0.0080 kg/ha,4.5
same,"herbicidal rating, ECHORC",[25]; rate 0.0320 kg/ha,9.0
same,"herbicidal rating, ECHORC",[25]; rate 0.1250 kg/ha,9.0
same,"herbicidal rating, CYPIR",CYPIR (Cyperus iria); rate 0.0080 kg/ha,2.5
same,"herbicidal rating, CYPIR",CYPIR (Cyperus iria); rate 0.0320 kg/ha,6.0
same,"herbicidal rating, CYPIR",CYPIR (Cyperus iria); rate 0.1250 kg/ha,9.0
same,"herbicidal rating, MOOVA",[26]; rate 0.0080 kg/ha,0.0
same,"herbicidal rating, MOOVA",[26]; rate 0.0320 kg/ha,9.0
same,"herbicidal rating, MOOVA",[26]; rate 0.1250 kg/ha,9.0
same,"herbicidal rating, SAGPY",[27]; rate 0.0080 kg/ha,2.5
same,"herbicidal rating, SAGPY",[27]; rate 0.0320 kg/ha,9.0
same,"herbicidal rating, SAGPY",[27]; rate 0.1250 kg/ha,9.0
Cn1c(C(F)(F)F)cc(=O)n(-c2ccc3snc(-c4cccnc4)c3c2)c1=O [Example 11],"herbicidal rating, ORYSAT (rice tolerance)","ORYSAT (Rice, Tebonnet) [28]",0.0
